Measured values from ChEMBL document CHEMBL1125804, “Antitumor agents. 120. New 4-substituted benzylamine and benzyl ether derivatives of 4'-O-demethylepipodophyllotoxin as potent inhibitors of human DNA topoisomerase II” (1991).

Experiments:
Nucleic Acid [1] = assay: % complex formation of cellular protein -DNA complex at a concentration of 10 uM; assay type: functional; conditions: Homo sapiens
[2] = target: DNA topoisomerase II (Homo sapiens) (UniProt P11388+Q02880); assay: Inhibition of human DNA topoisomerase II; assay type: protein assay
[3] = 50% reduction in KB cell number after a 3-day incubation.; assay type: functional; conditions: Homo sapiens, 72 h, read-out: ID50 (the source's name)
Nucleic Acid [4] = assay: Compound was tested for the % complex formation of cellular protein -DNA complex at a concentration of 10 uM; assay type: functional; conditions: Homo sapiens
[5] = Compound was tested for the concentration to afford 50% reduction in KB cell number after a 3-day incubation; assay type: functional; conditions: Homo sapiens, 72 h, read-out: ID50 (the source's name)

| SMILES | Complex formation (Nucleic Acid [1]) | ID50 [2] | IC50 [3] | Complex formation (Nucleic Acid [4]) | IC50 [5] |
| --- | --- | --- | --- | --- | --- |
| COc1cc([C@@H]2c3cc4c(cc3[C@@H](NCc3cccc([N+](=O)[O-])c3)[C@H]3COC(=O)[C@H]23)OCO4)cc(OC)c1O | 130% | 25000 nM | < 400 nM |  |  |
| COc1cc([C@@H]2c3cc4c(cc3[C@@H](O[C@@H]3O[C@@H]5CO[C@@H](C)O[C@H]5[C@H](O)[C@H]3O)[C@H]3COC(=O)[C@H]23)OCO4)cc(OC)c1O [ETOPOSIDE] |  |  | 200 nM | 100% |  |
| COc1cc([C@@H]2c3cc4c(cc3[C@@H](Nc3ccc([N+](=O)[O-])cc3)[C@H]3COC(=O)[C@H]23)OCO4)cc(OC)c1O |  |  |  | 323% | 490 nM |
| COc1cc([C@@H]2c3cc4c(cc3[C@@H](NCc3ccccc3F)[C@H]3COC(=O)[C@H]23)OCO4)cc(OC)c1O | 126% | 100000 nM | 1900 nM |  |  |
| COc1cc([C@@H]2c3cc4c(cc3[C@@H](NCc3cccc(F)c3)[C@H]3COC(=O)[C@H]23)OCO4)cc(OC)c1O | 216% | 25000 nM | 3000 nM |  |  |
| COc1cc([C@@H]2c3cc4c(cc3[C@@H](NCc3ccc(C(F)(F)F)cc3)[C@H]3COC(=O)[C@H]23)OCO4)cc(OC)c1O | 99% | 100000 nM | 2300 nM |  |  |
| COc1cc([C@@H]2c3cc4c(cc3[C@@H](NCc3cccc(N)c3)[C@H]3COC(=O)[C@H]23)OCO4)cc(OC)c1O | 191% | 25000 nM | < 400 nM |  |  |
| COc1cc([C@@H]2c3cc4c(cc3[C@@H](NCc3ccc(F)cc3)[C@H]3COC(=O)[C@H]23)OCO4)cc(OC)c1O | 169% | 50000 nM | > 4000 nM |  |  |
| COc1cc([C@@H]2c3cc4c(cc3[C@@H](NCc3ccc([N+](=O)[O-])cc3)[C@H]3COC(=O)[C@H]23)OCO4)cc(OC)c1O | 216% | 50000 nM | 400 nM |  |  |
| COc1cc([C@@H]2c3cc4c(cc3[C@@H](NCc3ccccc3N)[C@H]3COC(=O)[C@H]23)OCO4)cc(OC)c1O | 184% | 25000 nM | < 400 nM |  |  |
| COc1cc([C@@H]2c3cc4c(cc3[C@@H](OCc3ccc([N+](=O)[O-])cc3)[C@H]3COC(=O)[C@H]23)OCO4)cc(OC)c1O | < 25% | > 100000 nM | 1900 nM |  |  |
| COc1cc(CN[C@@H]2c3cc4c(cc3[C@@H](c3cc(OC)c(O)c(OC)c3)[C@H]3C(=O)OC[C@@H]32)OCO4)cc(OC)c1 | 144% | 100000 nM | 1700 nM |  |  |
| COc1cc([C@@H]2c3cc4c(cc3[C@@H](NCc3cccc(C#N)c3)[C@H]3COC(=O)[C@H]23)OCO4)cc(OC)c1O | 225% | 25000 nM | < 400 nM |  |  |
| COc1cc([C@@H]2c3cc4c(cc3[C@@H](OCc3ccccc3)[C@H]3COC(=O)[C@H]23)OCO4)cc(OC)c1O | < 25% | > 100000 nM | 2400 nM |  |  |
| COc1cc([C@@H]2c3cc4c(cc3[C@@H](Nc3ccc(N)cc3)[C@H]3COC(=O)[C@H]23)OCO4)cc(OC)c1O | 330% |  | 800 nM |  |  |
| COc1cc([C@@H]2c3cc4c(cc3[C@@H](NCc3ccccc3)[C@H]3COC(=O)[C@H]23)OCO4)cc(OC)c1O | 181% | 25000 nM | 2200 nM |  |  |
| COc1cc([C@@H]2c3cc4c(cc3[C@@H](Nc3ccc(F)cc3)[C@H]3COC(=O)[C@H]23)OCO4)cc(OC)c1O | 213% |  | 240 nM |  |  |
| COc1cc([C@@H]2c3cc4c(cc3[C@@H](NCc3ccc(C#N)cc3)[C@H]3COC(=O)[C@H]23)OCO4)cc(OC)c1O | 284% | 25000 nM | < 400 nM |  |  |
| COc1cc([C@@H]2c3cc4c(cc3[C@@H](NCc3cccc(Cl)c3)[C@H]3COC(=O)[C@H]23)OCO4)cc(OC)c1O | 159% | 50000 nM | 1200 nM |  |  |
| COc1cc([C@@H]2c3cc4c(cc3[C@@H](NCc3ccccc3[N+](=O)[O-])[C@H]3COC(=O)[C@H]23)OCO4)cc(OC)c1O | 144% | 50000 nM | 1800 nM |  |  |
